Experimental data reported in patent publication US7119071B2, “Amino terminal substance P compositions and methods for using the same” (University of Medicine and Dentistry of New Jersey, priority 2002, dated 2006).

Columns and labels:
Type in all cases: cell-based, human
TGF-β in BM stroma = experiment: Induction of TGF-β in BM stroma (CCL 64 growth inhibition bioassay); conditions: for TGF-β (pg/ml) 2nd stimulation: BM stroma re-stimulated for 16 h after 16 h 1st stimulation; for TGF-β (pg/ml) 2nd stimulation / TGF-β (pg/ml) 1st stimulation: 10 nM SP(1-4) or 10 ng/ml SCF; for TGF-β (pg/ml) 1st stimulation: BM stroma, 16 h, secreted and cell-bound, mean±SD
Description: (§1) Stromal cultures were prepared with BM aspirates from healthy donors as described^24. Briefly, stromal cells were cultured at 33° C. and at day 3, the granulocytes and red blood cells were removed by Ficoll-Hypaque density gradient. Cultures were reincubated with weekly replacement of 50% culture media until confluence. Cytokine, NK receptor and c-kit expressions were studied in confluent stroma, stimulated with 10 nM SP(1-4) and/or 10 ng/ml SCF. Stroma was stimulated in 3 ml sera-free cc-MEM, supplemented with insulin-transferring-selenium-A (Life Technologies, Grand Island, N.Y.). At 16 h, stromal monolayers were washed with sera-free α-MEM and then re-incubated for 16 h with media, 10 nM SP(1-4) or 10 ng/ml SCF. Controls included stroma cultured for 16 h or 32 h in media alone. Time-course and dose-response curves established the optimal concentrations of SCF and SP(1-4).
Growth inhibition of CCL 64 cells forms the basis of the bioassay used to quantitate active TGF-β^25. Each sample was tested in triplicate with […] of supernatants. TGF-β levels were determined from a standard curve established with TGF-β concentrations ranging from 0.001 to 10 ng/ml vs. cell concentration. The presence of TGF-β1 was verified by reanalyses of samples containing >20 ng/ml TGF-β with neutralizing anti-hTGF-β1^25. Neutralization was determined if the anti-TGF-β1 reversed the growth inhibitory effect of the supernatants. • 1. Biopanning of Phage Display Library and Selection of Clones
BM stroma was stimulated with 10 nM SP(1-4) or 10 ng/ml SCF (1st stimulation). After 16 h, cells were harvested or cultures were re-stimulated for 16 h (2nd stimulation) with 10 nM SP(1-4) or 10 ng/ml SCF. TGF-β and TNF-α levels were determined in the total volume of supernatants and cell extracts, obtained from one flask of stromal cells. The results are represented as the mean±SD of the total concentration (secreted and cell-bound/106 stromal cells). p<0.05 vs. unstimulated or SCF.

NK-1 mRNA = experiment: Quantitative RT-PCR for NK-1 mRNA in BM stroma; conditions: n=6; for NK-1 mRNA, 2nd stimulation: BM stroma washed and re-stimulated for 16 h after 16 h 1st stimulation; for NK-1 mRNA, 1st stimulation: BM stroma, 10 nM SP(1-4) or 10 ng/ml SCF for 16 h, mean±SD
Description: as §1
(§2) Quantitative RT-PCR for NK-1, NK-2 and β-PPT-I mRNA was performed as described^3, 24. Briefly, 2 μg of total RNA from BM stroma was reverse transcribed and 200 ng cDNA used in PCR reactions with standard DNA at log10 fold dilutions ranging between 10^−2 and 10^−6 attomole/L. PCR products (10 μl) were separated on agarose containing ethidium bromide. The DNA was scanned with a Fluorimager (Molecular Dynamics, Sunnyvale, Calif.) and the densities analyzed with ImageQuant software (Molecular Dynamics, version 5.2). A standard curve was established for each unknown sample: Band densities of unknown/standard DNA vs. Log10 standard DNA concentration. The concentration of the unknown sample was read at the point where the ratio of the unknown and standard were equivalent. Construction of DNA standards was previously described^24. • 1. Immunofluorescence for NK Receptors
(§3) BM stroma was stimulated with 10 nM SP(1-4) or 10 ng/ml SCF for 16 h (1st stimulation). After this, cultures were washed and then re-stimulated further for 16 h with similar concentrations of SP(1-4) or SCF (2nd stimulation). NK-1, NK-2 and β-PPT-I mRNA levels were quantitative by RT-PCR. The results are represented as the mean±SD, n=6. Each experiment was performed with a different BM donor. p<0.05: * vs. unstimulated or SP(1-4). […]: ** vs. unstimulated or SP(1-4).

NK-2 mRNA = experiment: Quantitative RT-PCR for NK-2 mRNA in BM stroma; conditions: n=6; for NK-2 mRNA, 2nd stimulation: BM stroma washed and re-stimulated for 16 h after 16 h 1st stimulation; for NK-2 mRNA, 1st stimulation: BM stroma, 10 nM SP(1-4) or 10 ng/ml SCF for 16 h, mean±SD
Description: as §1, §2, §3

β-PPT-I mRNA = experiment: Quantitative RT-PCR for β-PPT-I mRNA in BM stroma; conditions: n=6; for β-PPT-I mRNA, 2nd stimulation: BM stroma washed and re-stimulated for 16 h after 16 h 1st stimulation; for β-PPT-I mRNA, 1st stimulation: BM stroma, 10 nM SP(1-4) or 10 ng/ml SCF for 16 h, mean±SD
Description: as §1, §2, §3

SP-IR = experiment: Competitive ELISA for SP-immunoreactivity (SP-IR) in stimulated BM stroma; conditions: 10 ng/ml SCF, 5×10^6 stroma
Description: Competitive ELISA quantitated SP-IR as described^3. Briefly, Immulon 96-well plates (Dynatech Laboratories Inc., Chantilly, Va.) were precoated with streptavidin and then incubated with biotinylated SP (Chiron Mimotopes, Emeryville, Calif.). Equal volumes (50 μl) of unknown samples and optimum rabbit anti-SP were added to quadruplicate wells. Each sample was assayed as undiluted and three serial dilutions. Complexed anti-SP was detected with Alk Phos-conjugated goat anti-rabbit IgG and Sigma 104 phosphatase substrate. SP-IR levels were calculated from a standard curve developed with O.D. at 405 nm vs. 12 serial dilutions of known SP concentrations, ranging from 100 to 0.08 pg/ml.
Total RNA from unstimulated and stimulated (10 ng/ml SCF) BM stroma was analyzed for steady state NEP mRNA levels by northern analyses. The results shown in FIG. 4A indicate single bands at the predicted size of 1.8 kb. […] Analyses for SP and SP(1-4) were performed at different times using Ciphergen's ProteinChip Arrays. ELISA determined the levels of SP-IR in the supernatant and cell extracts of the stimulated stroma (5×10^6 stroma). An affinity protein chip with mobilized anti-SP determined the presence of SP(1-4) in extracts from 48 h-stimulated stroma. […] At 24 h, the total levels of SP-IR (supernatants and cell extracts) in stimulated stroma were 185±8 ng. SP levels were reduced to 12±5 ng at 48 h and to baseline levels (<2 ng) at 72 h (Table 3).

NEP mRNA = experiment: Northern analysis of steady state NEP mRNA in BM stroma; conditions: 10 ng/ml SCF, FIG. 4A
Description: Northern analyses for steady state NEP and NK-1 mRNA were performed as described^28. For NEP mRNA, stromal cells were stimulated with SCF for 16 h in sera-free α-MEM supplemented with Insulin-Transferring-Selenium-A. At different times after, total RNA was extracted and 10 μg used for northern analyses. Membranes were consecutively hybridized with [α-^32P]-dATP-labeled cDNA probes for NEP and 18S rRNA as described^3. NK-1 mRNA was determined with total RNA from stromal cultures that were sequentially stimulated with SCF and SP(1-4), described above. The cDNA for NK-1 is previously described^29. NK-2 cDNA was prepared by RT-PCR with total RNA from BM stroma as template and the same primers used for quantitative RT-PCR (described above). The NK-2 fragment, which was equivalent to 274 bp was subcloned into pNoTA/T7 (5 Prime→3 Prime, Boulder, Colo.). The cDNA for human NEP sand 18S rRNA were purchased from American Type Culture Collection (Manassas, Va.).
Total RNA from unstimulated and stimulated (10 ng/ml SCF) BM stroma was analyzed for steady state NEP mRNA levels by northern analyses. The results shown in FIG. 4A indicate single bands at the predicted size of 1.8 kb. […] Analyses for SP and SP(1-4) were performed at different times using Ciphergen's ProteinChip Arrays. ELISA determined the levels of SP-IR in the supernatant and cell extracts of the stimulated stroma (5×10^6 stroma). […]

NK-1 receptor = experiment: Immunofluorescence for SP-binding sites (NK-1) in BM stroma; conditions: 10 ng/ml SCF and/or 10 nM SP(1-4), FIG. 2
Description: (§4) BM stroma was stimulated with 10 ng/ml of SCF. At 24 h, cells were washed and then immediately incubated at 4° C. for 2 h with 200 ng/ml of biotin-SP or biotin-NK-A. After this, cells were labeled with FITC-avidin for 30 min and then examined for fluorescence intensity with an Olympus Provis AX-70 at 480±40 nm/excitation and 535±50 nm/emission. […] The optimal experimental conditions were determined in dose-response and time-course studies. Specificity of binding by SP or NK-A was studied in competition labeling with the pan-tachykinin antagonist, spantide. • 2. TNF-α determination
(§5) Since NK-1 and NK-2 receptors mediated the hematopoietic effects of the tachykinins^5, this section describes the studies and their results designed to further determine the interacting receptor for SP(1-4). Due to the lack of specific antibodies to the human NK-1 and NK-2 receptors, their detection by immunofluorescence was performed with the preferred ligand that was conjugated to biotin: SP for NK-1 and NK-A for NK-2^12. Spantide, a pan-tachykinin antagonist that competes with the ligand for NK receptor binding was used to determine the specificity of binding.

NK-2 receptor = experiment: Immunofluorescence for NK-A-binding sites (NK-2) in BM stroma; conditions: 10 ng/ml SCF and/or 10 nM SP(1-4), FIG. 2
Description: as §4, §5

c-kit = experiment: Immunofluorescence for c-kit in BM stroma; conditions: 10 ng/ml SCF, 6 h to 24 h, dim in unstimulated stroma
Description: The relative expression of c-kit in BM stroma was determined by immunofluorescence. BM stroma was cultured on coverslips (Fisher Scientific, Springfield, N.J.) and then stimulated with 10 ng/ml of SCF. At different times after cell stimulation, cells were labeled with 50 ng/ml of biotinylated goat anti-c-kit and FITC-avidin. Non-specific binding was determined with biotinylated non-immune goat anti-IgG. Cells were immediately examined on an OlympusProbis microscope (New York/New Jersey Scientific, Inc., Middlebush, N.J.).

CFU-GM = experiment: Clonogenic assay for CFU-GM in sera-free cultures; conditions: n=7
Description: BM aspirate was obtained from the posterior iliac crest of normal healthy volunteers. Mononuclear cells were isolated by Ficoll-Hypaque density gradient and then assayed for CFU-GM in sera-free cultures as described^3. Briefly, 10^5 BM mononuclear cells/ml were plated in methylcellulose with 10 or 1 nM of SP(1-4). Each experimental point was assayed in duplicate. Cultures were assayed in parallel in the presence or absence of anti-TGF-β or anti-TNF-α, each ranging between 2 μg/ml and 10 ng/ml. Cultures contained 3 U/ml of rhGM-CSF. At day 10, the number of colonies with >20 cells were counted.

NK-1 expression (biotin-SP binding) (NK-1 receptor)	NK-2 expression (biotin-NK-A binding) (NK-2 receptor)	Substance	TGF-β (pg/ml) 2nd stimulation (TGF-β in BM stroma)	NK-1 mRNA, 2nd stimulation (NK-1 mRNA)	NK-2 mRNA, 2nd stimulation (NK-2 mRNA)	β-PPT-I mRNA, 2nd stimulation (β-PPT-I mRNA)	TGF-β levels after 2nd stimulation (TGF-β in BM stroma; 1st stimulation SP(1-4), 2nd stimulation 16 h later, text citing Table 1) [pg]	TGF-β (pg/ml) 1st stimulation (TGF-β in BM stroma)	NK-1 mRNA, 1st stimulation (NK-1 mRNA)	NK-2 mRNA, 1st stimulation (NK-2 mRNA)	β-PPT-I mRNA, 1st stimulation (β-PPT-I mRNA)	total levels of SP-IR (supernatants and cell extracts) (SP-IR; 24 h, unstimulated <2 ng) [ng]	total levels of SP-IR (supernatants and cell extracts) (SP-IR; 48 h) [ng]	total levels of SP-IR (supernatants and cell extracts) (SP-IR; 72 h) [ng]	steady state NEP mRNA (northern band) (NEP mRNA; 16 h and 24 h)	steady state NEP mRNA (northern band) (NEP mRNA; 48 h)	fluorescence intensity of c-kit labeling (c-kit)	TGF-β, stimulated BM stroma (TGF-β in BM stroma; 1st stimulation, text citing Table 1) [pg]	percent inhibition on CFU-GM (CFU-GM; 1 nM SP(1-4)) [%]	percent inhibition on CFU-GM (CFU-GM; 10 nM SP(1-4)) [%]
–	–	SCF→SCF: 1st and 2nd stimulation with 10 ng/ml SCF	<5 pg/mL	*1480 ± 34 molecules/μg total RNA	10 ± 2	45 ± 4	–	–	–	–	–	–	–	–	–	–	–	–	–	–
–	–	SP(1-4)→SP(1-4): 1st and 2nd stimulation with 10 nM SP(1-4) (RPKP; Substance P; UniProt P20366 58-61, looked up, fragment)	*64 ± 4 pg/ml	<1 molecules/μg total RNA	**484 ± 10	<1	64 ± 4	–	–	–	–	–	–	–	–	–	–	–	–	–
SP binds to stromal cells	did not bind	SCF: stem cell factor, hematopoietic stimulator cytokine purchased from R&D Systems	–	1480±34 molecules/μg total RNA	–	–	–	<5 pg/mL	*1550 ± 26 molecules/μg total RNA	17 ± 3	640 ± 15	185 ± 8	12 ± 5	< 2	Strong bands	no detectable band	increased to bright	–	–	–
–	–	Arg-Pro-Lys-Pro (RPKP; listed as Homo sapiens) [SP(1-4), tetrapeptide resulting from degradation of SP by endopeptidases such as NEP]	–	–	–	–	–	*90 ± 15 pg/ml	<1 molecules/μg total RNA	**510 ± 15	<1	–	–	–	–	–	–	90 ± 15	55±4	65±6
